For one data set, the target named is Aβ40 fibrils (Homo sapiens, UniProt P05067).
Data set [1] is described as follows: Circular dichroism under denaturing conditions (urea, pH, GuHCl, temperature). The data set is classed as physicochemical. The following applies: pH 2.5-10.5, 8M GuHCl, 20° and 70° C. How it is done: A 1 mm or 0.1 mm pathlength cell was used for measurements, depending on the concentration of the solution. Six to eight scans were acquired from 250 nm to 200 nm. For the pH experiment, a 100 mM phosphate-citrate buffer was used for pH 2.5-6.5, a 100 mM phosphate buffer was used for pH 7.5-8.5 and a 100 mM glycine-NaOH buffer was used for pH 9.5-10.5.
The circular dichroic (CD) spectra were recorded using a Jasco P715 spectropolarimeter. […] A 1 mm or 0.1 mm pathlength cell was used for measurements, depending on the concentration of the solution. Six to eight scans were acquired from 250 nm to 200 nm. For the pH experiment, a 100 mM phosphate-citrate buffer was used for pH 2.5-6.5, a 100 mM phosphate buffer was used for pH 7.5-8.5 and a 100 mM glycine-NaOH buffer was used for pH 9.5-10.5. For the urea denaturation experiment, Ad 16-20m was dissolved in 100 mM phosphate buffer pH 7.4 with 0-8.5 M urea.
In general terms: CD spectra are sensitive to the conformation of chiral molecules.

A further data set deals with Aβ40 (Homo sapiens, UniProt P05067). Briefly: Inhibition of Aβ40 fibrillogenesis, thioflavin T fluorescence assay. The data set is classed as biochemical.
Another data set in a line: Calcein leakage assay. Also on record: calcein escaped from the vesicles: dose or concentration left out as unconfirmed. The format is in vitro ADME. How it is done:
The leakage of vesicle contents was monitored by measuring the release of calcein (Terzi et al., 1995 and Pillot et al, 1996). Vesicles were prepared and separated from free calcein as described above for the radioactive compounds, except that the rehydration buffer contained […] calcein and 10 mM Na-EDTA. In the kinetic assay, peptide was added to the vesicle solution and the fluorescence was measured at ten minute intervals with excitation and emission wavelengths of 490 and 520 nm, respectively. Data were fit to an equation for a first order rate process. For the concentration dependence assay, different amounts of peptide were added to the vesicle solution and the fluorescence was measured after a two hour incubation at 37° C. The maximum leakage was determined by lysing the vesicles with the addition of 0.5% (w/v) Triton X-100.
The leakage of vesicle contents was monitored by measuring the release of calcein (Terzi et al., 1995; Pillot et al., 1996). Vesicles were prepared and separated from free calcein as described herein for the radioactive compounds, except that the rehydration buffer contained 40 mM calcein and 1 mM Na-EDTA. […] The maximum fluorescence was measured by lysing the vesicles with the addition of 0.1% (w/v) Triton X-100.

In the next data set the target is PrP106-126 (Homo sapiens, UniProt P04156). The format is biochemical.
A short description of data set [2]: Solubility in aqueous media and organic solvents.

A value given as a limit tells only on which side of the number the result lay.

PrP106-126, sequence (P04156 106-126 limits assumed): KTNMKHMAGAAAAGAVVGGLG
Aβ40 fibrils, sequence (P05067 672-711): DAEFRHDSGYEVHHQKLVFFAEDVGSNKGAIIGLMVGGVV
Aβ40, sequence (P05067 672-711): as above

Regarding `CC(=O)N[C@@H](CCCCN)C(=O)N(C)[C@@H](CC(C)C)C(=O)N[C@H](C(=O)N(C)[C@@H](Cc1ccccc1)C(=O)N[C@@H](Cc1ccccc1)C(N)=O)C(C)C` [Aβ16-20m, Ac—NH—K(me-L)V(me-F)F—CONH2], on Aβ40 fibrils, the half-life amounted to 24 ± 7 min. In data set [1], the “stability of peptide structure by CD (mean residue ellipticity at 226 nm)” value is “extremely stable and resistant to chemical denaturation”. Besides, on Aβ40, the “effect on Aβ40 fibril formation (in words)” value is “highly effective inhibitor”. For the same molecule, the “leakage of calcein from vesicles (in words)” value in the data set “Calcein leakage assay” is reported as “causes the leakage of calcein”. For the same molecule, the “calcein escaped from the vesicles” value in the data set “Calcein leakage assay” (highest concentration tested) is reported as 82%. For the same molecule, in the data set “Calcein leakage assay” (low micromolar concentrations of peptide), the calcein efflux result was “less than 10%”. In addition, the “inhibition of fibril formation by PrP106-126” value against PrP106-126 is “ineffective”. For the same molecule, in data set [2], the solubility was at least 30 mM and the “solubility in aqueous media (in words)” value was “highly soluble in aqueous media”. In addition, the “solubility in organic solvents (in words)” value in data set [2] (DMF, diethyl ether, methylene chloride, chloroform) is “highly soluble”.

Broadly, the solubility is the dissolved amount per volume that the medium holds.

The values are drawn from patent US20030130484A1, “Inhibitors and disassemblers of fibrillogenesis” (priority 2001, published 2003).
